Source: US7572768B2, “Methods for identifying compounds for regulating muscle mass or function using corticotropin releasing factor receptors” (priority 2001, dated 2009)

Tests used:
[1] = tested on: disuse-induced atrophy of skeletal muscle; test: mouse leg casting disuse atrophy model; type: in vivo; conditions: ten days
Method: (§1) Legend: A—physiological saline (control); B—theophylline; C—sauvagine (0.03 mg/kg)+theophylline; D—sauvagine (0.1 mg/kg)+theophylline; E—sauvagine (0.3 mg/kg)+theophylline; *—p≦0.05 compared to saline. Following casting of the right hind leg, male mice were injected subcutaneously in the midscapular region twice daily, with sauvagine or vehicle control (physiological saline) for ten days at the daily delivered dose indicated. Sauvagine was co-administered with twice daily intra-peritoneal dosing of the phosphodiesterase inhibitor theophylline (30 mg/kg). On day ten, the medial gastrocnemius and tibialis anterior muscles were removed and weighed to determine the degree of atrophy.
as §1, with “B—urocortin” for “B—theophylline; C—sauvagine (0.03 mg/kg)+theophylline; D—sauvagine (0.1 mg/kg)+theophylline; E—sauvagine”, “urocortin” for “sauvagine”, “days. Urocortin was administered” for “days”, “doses indicated in the description of FIGS. 6A and 6B. Urocortin” for “daily delivered dose indicated. Sauvagine”
Legend: A—non casted muscle control; B—casted muscle, saline control; C—casted muscle, sauvagine (0.3 mg/kg)+theophylline (30 mg/kg); *—p≦0.05 compared to saline. Following casting of the right hind leg, male mice were injected subcutaneously in the midscapular region twice daily, with either sauvagine or vehicle control (physiological saline) for ten days at the doses indicated above. Sauvagine was co-administered 30 mg/kg theophylline. On day ten, the EDL and soleus muscles were removed and absolute force and mass measurements taken to determine the degree of atrophy.
The leg casting disuse atrophy model involves casting one hind leg of an animal from the knee down through the foot. Typically, muscle mass is reduced 20-40% after ten days of casting. Following casting, test compounds are administered by injection or by continuous infusion via implantation of an osmotic minipump (e.g., Alzet, Palo Alto, Calif.) to determine their effect on leg casting induced skeletal muscle atrophy. At various times following leg casting, the extent of atrophy in the affected muscles is analyzed as described above for the denervation model.
The extensor digitorum longus (EDL) and soleus muscles are removed, tendon-to-tendon from the casted mouse leg. A silk suture is tied to each tendon of the isolated muscles and the muscles are placed into a plexiglass chamber filled with Ringer solution (137 mM sodium chloride, 24 mM sodium bicarbonate, 11 mM glucose, 5 mM potassium chloride, 1 mM magnesium sulfate, 1 mM sodium phosphate, 0.025 mM tubocurarine, all at pH 7.4 and oxygenated with 95% oxygen/5% carbon dioxide) constantly bubbled with 95% oxygen/5% carbon dioxide maintained at 25° C. Muscles are aligned horizontally between a servomotor lever arm (Model 305B-LR Cambridge Technology Inc., Watertown Mass., USA) and the stainless steel hook of a force transducer (Model BG-50; Kulite Semiconductor Products Inc., Leonia, N.J., USA) and field stimulated by pulses transmitted between two platinum electrodes placed longitudinally on either side of the muscle. Square wave pulses (0.2 ms duration) generated by a personal computer with a Labview board (Model PCI-MIO 16E-4), Labview Inc., Austin, Tex., USA) are amplified (Acurus power amplifier model A25, Dobbs Ferry, N.Y., USA) to increase titanic contraction. Stimulation voltage and muscle length (Lo) are adjusted to obtain maximum isometric twitch force. Maximum titanic force production (Po) is determined from the plateau of the frequency-force relationship.

[2] = tested on: denervation-induced atrophy of skeletal muscle; test: adrenalectomized rat sciatic nerve denervation-induced atrophy model; type: in vivo; conditions: male adrenalectomized rats, 0.003-0.03 mg/kg s.c. twice daily + 30 mg/kg theophylline, nine days
Method: Legend: A—physiological saline (control); B—sauvagine (0.003 mg/kg)+theophylline; C—sauvagine (0.01 mg/kg)+theophylline; D—sauvagine (0.03 mg/kg)+theophylline; #—p≦0.05 compared to corresponding controls. Following denervation of the right sciatic nerve, male adrenalectomized rats (adrenalectomized rats were used to remove the skeletal muscle atrophy-inducing effects of activation of the HPA axis via agonisms of the CRF1R) were injected subcutaneously in the midscapular region twice daily, with either sauvagine or vehicle control (physiological saline) for nine days at the doses shown above. Sauvagine was co-administered with 30 mg/kg theophylline. On day nine, the tibialis anterior, extensor digitorum longus (EDL), soleus, medial gastrocnemius, and plantaris muscles were removed and weighed to determine the degree of atrophy.
The sciatic nerve denervation atrophy model involves anesthetizing the animal followed by the surgical removal of a short segment of either the right or left sciatic nerve, e.g., in mice the sciatic nerve is isolated approximately at the midpoint along the femur and a 3-5 mm segment is removed. This denervates the lower hind limb musculature resulting in atrophy of these muscles. Typically, innervation to the biceps femoris is left intact to provide satisfactory motion of the knee for virtually normal ambulation. Typically, in untreated animals, muscle mass of the denervated muscles is reduced 30-50% ten days following denervation. Following denervation, test compounds are administered e.g., by injection or by continuous infusion, e.g., via implantation of an osmotic minipump (e.g., Alzet, Palo Alto, Calif.), to determine their effect on denervation induced skeletal muscle atrophy. At various times following denervation, the animals are euthanized and lower leg muscles are dissected rapidly from both the denervated and nondenervated legs, the muscles, cleaned of tendons and connective tissue, are weighed. The extent of atrophy in the affected muscles is analyzed, for example, by measuring muscle mass, muscle cross-sectional area, myofiber cross-sectional area or contractile protein content.

[3] = FIG. 9A, male mice, 0.3 mg/kg s.c. twice daily + theophylline 30 mg/kg

SMILES: CC[C@H](C)[C@H](NC(=O)[C@@H](NC(=O)[C@H](CC(=O)O)NC(=O)[C@H](CC(C)C)NC(=O)[C@H](CC(C)C)NC(=O)[C@H](CC(C)C)NC(=O)[C@H](CCCNC(=N)N)NC(=O)[C@H](CC(N)=O)NC(=O)[C@H](CC(N)=O)NC(=O)[C@H](C)NC(=O)[C@H](C)NC(=O)[C@H](CCC(N)=O)NC(=O)[C@H](CCC(N)=O)NC(=O)[C@H](CCCCN)NC(=O)[C@H](CCC(=O)O)NC(=O)[C@H](CCCCN)NC(=O)[C@H](CCC(=O)O)NC(=O)[C@H](CCC(N)=O)NC(=O)[C@H](CCCCN)NC(=O)[C@H](CCC(=O)O)NC(=O)[C@@H](NC(=O)[C@H](CCC(=O)O)NC(=O)[C@@H](NC(=O)[C@H](CCSC)NC(=O)[C@H](CCCCN)NC(=O)[C@H](CCCNC(=N)N)NC(=O)[C@H](CC(C)C)NC(=O)[C@H](CC(C)C)NC(=O)[C@H](CCC(=O)O)NC(=O)[C@H](CC(C)C)NC(=O)[C@H](CO)NC(=O)[C@H](CC(C)C)NC(=O)[C@H](CC(=O)O)NC(=O)[C@@H](NC(=O)[C@H](CO)NC(=O)[C@@H](NC(=O)[C@@H]1CCCN1C(=O)[C@@H]1CCCN1C(=O)CNC(=O)[C@@H]1CCC(=O)N1)[C@@H](C)CC)[C@@H](C)CC)[C@@H](C)CC)[C@@H](C)CC)[C@@H](C)O)C(N)=O [sauvagine]
- disuse-induced atrophy of the tibialis anterior muscle (muscle weight) ([1]; FIG. 4A, casted leg, male mice, 0.03-0.3 mg/kg s.c. twice daily + theophylline 30 mg/kg i.p.): inhibits disuse-induced atrophy
- hypertrophy of the tibialis anterior muscle of the non-casted leg ([1]; FIG. 4A, non-casted leg, 0.03-0.3 mg/kg s.c. twice daily + theophylline 30 mg/kg i.p.): statistically significant hypertrophy
- disuse-induced atrophy of the medial gastrocnemius muscle (muscle weight) ([1]; FIG. 4B, casted leg, male mice, 0.03-0.3 mg/kg s.c. twice daily + theophylline 30 mg/kg i.p.): inhibits disuse-induced atrophy
- hypertrophy of the medial gastrocnemius muscle of the non-casted leg ([1]; FIG. 4B, non-casted leg, 0.03-0.3 mg/kg s.c. twice daily + theophylline 30 mg/kg i.p.): statistically significant hypertrophy
- disuse-induced loss of EDL muscle mass [1, 3]: inhibits disuse-induced loss
- disuse-induced loss of soleus muscle mass [1, 3]: inhibits disuse-induced loss
- loss of muscle function as assessed by measurement of absolute force ([1]; FIG. 9B, EDL and soleus muscles, 0.3 mg/kg s.c. twice daily + theophylline 30 mg/kg): inhibits loss of muscle function
- denervation-induced atrophy of the tibialis anterior muscle (muscle weight) ([2]; FIG. 7A): inhibits denervation-induced atrophy
- denervation-induced atrophy of the EDL muscle (muscle weight) ([2]; FIG. 7B): inhibits denervation-induced atrophy
- hypertrophy of the non-denervated EDL muscle ([2]; FIG. 7B): statistically significant hypertrophy
- denervation-induced atrophy of the soleus muscle (muscle weight) ([2]; FIG. 7C): inhibits denervation-induced atrophy
- denervation-induced atrophy of the medial gastrocnemius muscle (muscle weight) ([2]; FIG. 7D): inhibits denervation-induced atrophy
- denervation-induced atrophy of the plantaris muscle (muscle weight) ([2]; FIG. 7E): inhibits denervation-induced atrophy
